In ChEMBL document CHEMBL1201862, “PubChem BioAssay data set” (2004):
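Five compound concentrations were applied to cells in 96-well plates for 48 hours; endpoints were derived by simple linear interpolation of the resulting dose-response curve. GI50 marks 50% less growth.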 Activity calls are given as the source filed them. Cut-off read from the data, not from the text of the source: active = GI50 up to about 1.1 µM and inactive = higher.

Tests used:
Assay in all cases: inhibition of tumour cell growth, NCI panel, 48 h
M14 = test system: M14
HCC 2998 = test system: HCC 2998
SK-MEL-2 = test system: SK-MEL-2
DU-145 = test system: DU-145
MOLT-4 = test system: MOLT-4
CCRF-CEM = test system: CCRF-CEM
SR = test system: SR
TK-10 = test system: TK-10
IGROV-1 = test system: IGROV-1
HCT-116 = test system: HCT-116
HOP-62 = test system: HOP-62
CAKI-1 = test system: CAKI-1
ACHN = test system: ACHN
A498 = test system: A498
SF-268 = test system: SF-268
RXF 393 = test system: RXF 393
Malme-3M = test system: Malme-3M
COLO 205 = test system: COLO 205
OVCAR-4 = test system: OVCAR-4
OVCAR-5 = test system: OVCAR-5

Compound | GI50 (M14) | GI50 (HCC 2998) | GI50 (SK-MEL-2) | GI50 (DU-145) | GI50 (MOLT-4) | GI50 (CCRF-CEM) | GI50 (SR) | GI50 (TK-10) | GI50 (IGROV-1) | GI50 (HCT-116) | GI50 (HOP-62) | GI50 (CAKI-1) | GI50 (ACHN) | GI50 (A498) | GI50 (SF-268) | GI50 (RXF 393) | GI50 (Malme-3M) | GI50 (COLO 205) | GI50 (OVCAR-4) | GI50 (OVCAR-5)
COC(=O)c1c(C(=O)OC)c2ccccn2c1-c1cc(C)cc2c1C(=O)C=CC2=O | 9.48 µM (inactive) | 13.9 µM (inactive) | 12.5 µM (inactive) | 14 µM (inactive) | 1.38 µM (inactive) | 0.796 µM (active) | 3.93 µM (inactive) | 14.1 µM (inactive) | 12.8 µM (inactive) | 10.7 µM (inactive) | 15.7 µM (inactive) | 5.08 µM (inactive) | 12.6 µM (inactive) | 12.8 µM (inactive) | 13.9 µM (inactive) | 14.1 µM (inactive) | 10.2 µM (inactive) | 5.22 µM (inactive) | 14.2 µM (inactive) | 12.1 µM (inactive)
Brc1ccc2[nH]cc(-c3nc(-c4c[nH]c5ccccc45)cs3)c2c1 | 1.74 µM (inactive) | 2.3 µM (inactive) | 2.82 µM (inactive) | 3.45 µM (inactive) | 2.11 µM (inactive) | 3.79 µM (inactive) | 3.44 µM (inactive) | 3.56 µM (inactive) | 1.58 µM (inactive) | 2.53 µM (inactive) | 4.58 µM (inactive) | 2.74 µM (inactive) | 2.43 µM (inactive) | 2.88 µM (inactive) | 3 µM (inactive) | 5.48 µM (inactive) | 3.17 µM (inactive) | 1.22 µM (inactive) | 6.03 µM (inactive) | 1.95 µM (inactive)
CCOP(=O)(OCC)C(c1ccc(F)cc1)N(C(=O)NC(F)(F)F)c1cccc(C(F)(F)F)c1 (stereo not given) | > 100 µM (inactive) | > 100 µM (inactive) | > 100 µM (inactive) | > 100 µM (inactive) | 61.9 µM (inactive) | > 100 µM (inactive) | 75.3 µM (inactive) | > 100 µM (inactive) | 65.8 µM (inactive) | 84.3 µM (inactive) | > 100 µM (inactive) | > 100 µM (inactive) | > 100 µM (inactive) | > 100 µM (inactive) | > 100 µM (inactive) | 52.8 µM (inactive) | > 100 µM (inactive) | > 100 µM (inactive) | 96.4 µM (inactive) | > 100 µM (inactive)
COC(=O)C1c2cc3c(cc2C(OC2OC(C)C(OC)C(C)(OC)C2OC)CC1(C)O)C(=O)c1c(O)cc2c(c1C3=O)OC1OC2(C)C(O)C([N+](C)(C)[O-])C1O (stereo not given) | 0.482 µM (active) | 0.146 µM (active) | 0.137 µM (active) | 0.275 µM (active) | 0.416 µM (active) | 0.0504 µM (active) | 0.305 µM (active) | 2.83 µM (inactive) | 0.0791 µM (active) | 0.0197 µM (active) | 0.336 µM (active) | 0.938 µM (active) | 0.309 µM (active) | 0.184 µM (active) | 0.0891 µM (active) | 0.179 µM (active) | 0.0581 µM (active) | 0.0634 µM (active) | 4.09 µM (inactive) | 1.48 µM (inactive)
N#Cc1c(N)nc2c(/N=N\c3ccccc3)c(N)nn2c1Nc1ccccc1 | 12.1 µM (inactive) | 4.41 µM (inactive) | 7.91 µM (inactive) | 18.2 µM (inactive) | 3.24 µM (inactive) | 4.37 µM (inactive) | 2.39 µM (inactive) | 22.3 µM (inactive) | 10.9 µM (inactive) | 9.38 µM (inactive) | 20.3 µM (inactive) | 8.93 µM (inactive) | 20.4 µM (inactive) | 21.7 µM (inactive) | 26.7 µM (inactive) | 13.1 µM (inactive) | 21.6 µM (inactive) | 9.93 µM (inactive) | 14.9 µM (inactive) | 26.7 µM (inactive)
COc1cc(C2C3=C(COC3=O)Oc3cc4c(cc32)OCO4)ccc1OC(C)=O (stereo not given) | 0.498 µM (active) | 1.01 µM (active) | 0.684 µM (active) | 0.492 µM (active) | 0.536 µM (active) | 0.35 µM (active) | 0.179 µM (active) | > 100 µM (inactive) | 0.238 µM (active) | 0.398 µM (active) | 1.73 µM (inactive) | 0.303 µM (active) | 0.55 µM (active) | 1.53 µM (inactive) | 1.09 µM (active) | 0.67 µM (active) | 0.0893 µM (active) | 0.224 µM (active) | 1.41 µM (inactive) | 5.22 µM (inactive)
CC[C@@H]1/C=C/C=C/C[C@H](C)[C@@H](O)[C@](C)(O)C(=O)[C@H](C)[C@@H](O)[C@H](C)C(=O)[C@H](C)[C@@H](O)[C@H](C)/C=C/C(=O)O[C@H]2[C@@H](C)[C@@H](CC1)O[C@]1(O[C@H](CC(C)O)[C@H](C)CC1=O)[C@@H]2C (stereo not given in full) | 3.14 µM (inactive) | 3.53 µM (inactive) | 3.89 µM (inactive) | 3.3 µM (inactive) | 3.82 µM (inactive) | 3.56 µM (inactive) | 4.13 µM (inactive) | 1.22 µM (inactive) | 5.22 µM (inactive) | 2.62 µM (inactive) | 3.18 µM (inactive) | 3.96 µM (inactive) | 2.65 µM (inactive) | 0.108 µM (active) | 3.71 µM (inactive) | 3.6 µM (inactive) | 4.93 µM (inactive) | < 0.0025 µM (active) | 2.56 µM (inactive) | 3.3 µM (inactive)
COc1ccc(/N=N/C(=O)NC(CC(C)C)C(=O)NCC(=O)O)cc1 (stereo not given) | 2.94 µM (inactive) | 8.97 µM (inactive) | > 18.4 µM (inactive) | 12.2 µM (inactive) | 1.83 µM (inactive) | 9.31 µM (inactive) | 19.5 µM (inactive) | 25.3 µM (inactive) | 6.27 µM (inactive) | 12.5 µM (inactive) | 41.6 µM (inactive) | > 100 µM (inactive) | 1.54 µM (inactive) | > 100 µM (inactive) | > 43.8 µM (inactive) | > 100 µM (inactive) | 19.7 µM (inactive) | 4.47 µM (inactive) | > 51.5 µM (inactive) | 13.5 µM (inactive)
Cc1cccc2c1CC1(C2)Cc2c(C)cccc2C1=O (stereo not given) | 26.6 µM (inactive) | 26.1 µM (inactive) | 16.9 µM (inactive) | 18.8 µM (inactive) | 9.91 µM (inactive) | 21.3 µM (inactive) | 11.2 µM (inactive) | 23.6 µM (inactive) | 30.4 µM (inactive) | 16.5 µM (inactive) | 23.6 µM (inactive) | 10.3 µM (inactive) | 24.9 µM (inactive) | 32.1 µM (inactive) | 26.7 µM (inactive) | 15.6 µM (inactive) | 22.7 µM (inactive) | 15.6 µM (inactive) | 30.6 µM (inactive) | 28.7 µM (inactive)
CC1=NN(C(=O)c2ccccc2O)C(=O)/C1=C/c1ccco1 | 1.93 µM (inactive) | > 22.8 µM (inactive) | 5.02 µM (inactive) | 4.74 µM (inactive) | 1.93 µM (inactive) | 1.61 µM (inactive) | 2.94 µM (inactive) | 33.9 µM (inactive) | 1.26 µM (inactive) | 2.23 µM (inactive) | 0.497 µM (active) | 1.61 µM (inactive) | 2.26 µM (inactive) | 2.43 µM (inactive) | 1.11 µM (active) | 0.171 µM (active) | 11.9 µM (inactive) | 10.5 µM (inactive) | 3.46 µM (inactive) | 9.18 µM (inactive)
